Assay results published in PubChem BioAssay AID434951 (Broad Institute, 2010).
Active and inactive are the calls of the source.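 The calls were made as follows: active = a fitted half-maximal concentration EC50 for the rise in nuclear signal no higher than ten times the top dose tested; inconclusive = flat fit with activity between 30% and 70%, or unusable fit; inactive = EC50 beyond ten times the top dose.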

These molecules were tested against Hypoxia-inducible factor 1-alpha (Homo sapiens) (UniProt Q16665) (assay: activators of HIF1alpha nuclear accumulation, confirmation, imaging, fluorescence, U2OS GFP-HIF1alpha (AID 434951)). Conditions: U2OS GFP-HIF1alpha nuclear intensity, high-content imaging.
Chain of Hypoxia-inducible factor 1-alpha (Homo sapiens) (Q16665 whole entry, looked up): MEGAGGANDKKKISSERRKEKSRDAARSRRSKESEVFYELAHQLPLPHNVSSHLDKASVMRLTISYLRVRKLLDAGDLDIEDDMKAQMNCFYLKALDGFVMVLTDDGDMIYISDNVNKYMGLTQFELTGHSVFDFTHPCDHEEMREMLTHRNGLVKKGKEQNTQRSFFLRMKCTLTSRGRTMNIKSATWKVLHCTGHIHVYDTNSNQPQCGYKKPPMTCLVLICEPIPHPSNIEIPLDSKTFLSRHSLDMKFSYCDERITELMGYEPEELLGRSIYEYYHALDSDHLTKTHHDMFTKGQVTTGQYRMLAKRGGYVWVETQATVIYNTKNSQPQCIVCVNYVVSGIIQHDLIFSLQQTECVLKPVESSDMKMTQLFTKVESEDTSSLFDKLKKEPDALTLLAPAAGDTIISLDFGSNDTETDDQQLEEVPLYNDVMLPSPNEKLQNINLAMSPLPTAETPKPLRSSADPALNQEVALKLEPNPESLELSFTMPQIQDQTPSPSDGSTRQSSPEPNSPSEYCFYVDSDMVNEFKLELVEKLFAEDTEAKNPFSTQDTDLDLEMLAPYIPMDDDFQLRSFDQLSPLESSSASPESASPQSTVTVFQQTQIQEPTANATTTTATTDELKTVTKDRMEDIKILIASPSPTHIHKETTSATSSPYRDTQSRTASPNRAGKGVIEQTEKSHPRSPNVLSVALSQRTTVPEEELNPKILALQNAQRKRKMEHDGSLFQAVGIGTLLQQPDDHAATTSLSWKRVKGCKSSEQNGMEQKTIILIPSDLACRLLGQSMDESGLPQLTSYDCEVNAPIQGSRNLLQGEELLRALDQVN
For `C=CCNc1nc(-c2ccccn2)nnc1-c1ccccc1`, the EC50 was 7.41 µM.
For `CCC(Cc1ccccc1)n1c(=S)[nH]c2ccccc2c1=O` (configuration not stated), the EC50 was > 35 µM (inactive).
In the case of `COc1cccc(C2C3=C(N=c4s/c(=C\c5ccccc5O)c(=O)n42)c2ccccc2CC3)c1OC` (configuration not stated), the EC50 is reported as > 35 µM (inactive).
Molecule `Cc1nc2ccccc2c(=O)n1/N=C/c1ccc2ccccc2c1O` has an EC50 of 22.2 µM.
In the case of `COc1ccc(N2CCN(c3ccc(N4C(=O)CC(C)C4=O)cc3[N+](=O)[O-])CC2)cc1` (configuration not stated), the EC50 is reported as > 35 µM (inactive).
For `Cc1noc(C)c1COC(=O)C1CC(O)CN1S(=O)(=O)c1ccc(Cl)cc1` (configuration not stated), the EC50 was > 35 µM (inactive).
For `C=C(C)CNC(=O)c1ccc2nc(Cc3ccc(OC)cc3)oc2c1`, the EC50 was > 35 µM (inactive).
With `O=C1OCc2cc(NC(=O)C34CC5CC(CC(C5)C3)C4)ccc21` the EC50 was > 35 µM (inactive).
In the case of `CCOC(=O)c1c(S(=O)(=O)NCc2ccc(C)o2)c(C)n(C)c1C`, the EC50 is reported as > 35 µM (inactive).
In the case of `O=C(CSc1nnc(-c2ccccc2Cl)o1)N1CCOCC1`, the EC50 is reported as > 35 µM (inactive).
With `Cc1onc(-c2ccccc2)c1NC(=O)N(Cc1ccccc1)C(C)C` the EC50 was > 35 µM (inactive).
For `CN(C)c1ccc(N=Nc2ccc(S(N)(=O)=O)cc2)cc1`, the EC50 was > 35 µM (inactive).
In the case of `Cc1ccc(/C=N\Nc2nc3ccc(Cl)cc3[nH]2)o1`, the EC50 is reported as > 35 µM (inactive).
In the case of `Cc1cccc(OCC(=O)NCC(=O)N/N=C/c2cccnc2)c1`, the EC50 is reported as > 35 µM (inactive).
With `Cc1ccc(-n2nc3c(=O)n(CC(=O)NCc4ccccc4)nc(C)c3c2C)cc1` the EC50 was > 35 µM (inactive).
Work on `COc1ccccc1-c1cc(C(F)(F)F)nc(S(=O)(=O)CCCC(=O)NCc2ccc(F)cc2)n1` yielded an EC50 of 9.53 µM.
`COc1ccccc1-c1cc(C(F)(F)F)nc(S(C)(=O)=O)n1` gave an EC50 of 18 µM.
In the case of `CCCCc1nnc(NC(=O)c2ccc3[nH]c(=O)c(=O)[nH]c3c2)s1`, the EC50 is reported as > 35 µM (inactive).
For `CC(=O)c1ccc(N(C(=O)c2csnn2)C(C(=O)NC(C)(C)C)c2cccs2)cc1` (configuration not stated), the EC50 was > 35 µM (inactive).
`COc1ccc(CC(=O)NNC(=S)NCC2CC2)cc1OC` was tested, and the EC50 was > 35 µM (inactive).
With `COc1cccc(/C=N/Nc2nccnc2Cl)c1O` the EC50 was 6.36 µM.
With `Cc1cc(C(=O)O)oc(=O)c1` the EC50 was > 35 µM (inactive).
With `COc1cccc2sc(N3CCN(C(=O)c4ccc([N+](=O)[O-])o4)CC3)nc12` the EC50 was > 35 µM (inactive).
For `Oc1c(CN2CCN(c3ccc(F)cc3)CC2)cc(Cl)c2cccnc12`, the EC50 was 6.07 µM.
`Cc1ccc(CNC(=O)NC2CCCCC2)cc1` was tested, and the EC50 was > 35 µM (inactive).
With `CCCC1CCC(=C(C#N)C(N)=O)CC1` (configuration not stated) the EC50 was > 35 µM (inactive).
`COc1cc(C(=O)Oc2ccccc2/C=N/NC(=O)c2ccc(C)cc2)cc(OC)c1OC` gave an EC50 of 13.8 µM.
For `COc1ccccc1NC(c1cccnc1)c1ccc2cccnc2c1O` (configuration not stated), the EC50 was 25.9 µM.
For `O=C(NC(c1ccccc1)c1ccccc1)C1CCCO1` (configuration not stated), the EC50 was > 35 µM (inactive).
For `O=C(NC1=NCCS1)c1cccc(NC(=O)c2ccco2)c1`, the EC50 was > 35 µM (inactive).
With `Cc1ccsc1C(=O)N/N=C/c1ccc([N+](=O)[O-])cc1` the EC50 was > 35 µM (inactive).
In the case of `CC(=O)NC(c1ccc(Cl)cc1Cl)c1ccc2cccnc2c1O` (configuration not stated), the EC50 is reported as 12.8 µM.
Work on `Cc1ccc(-c2csc3nc(SCC(=O)N(C)C)n(Cc4ccccc4)c(=O)c23)cc1` yielded an EC50 of 5.26 µM.
For `CCC(=O)N1CCc2cc(S(=O)(=O)NCCC(=O)N3CCN(c4cccc(OC)c4)CC3)ccc21`, the EC50 was > 35 µM (inactive).
`Cc1nc2cc(-c3ccccc3)sc2c(=O)n1N` was tested, and the EC50 was > 35 µM (inactive).
`[O-]/C(=C(\C(=S)Nc1cccc2ccccc12)[n+]1ccccc1)c1cccs1` was tested, and the EC50 was > 35 µM (inactive).
In the case of `CCCCc1c(C)nc(N)[nH]c1=O`, the EC50 is reported as > 35 µM (inactive).
With `COc1ccc2ccccc2c1/C=N/Nc1cccc(C(=O)O)c1` the EC50 was > 35 µM (inactive).
For `C/C(=N\O)C(=O)Nc1ccccc1`, the EC50 was > 35 µM (inactive).
`CCN(CC)CCOC(=O)C(Cc1ccco1)Cc1cccc2ccccc12` (configuration not stated) was tested, and the EC50 was > 35 µM (inactive).
For `CCCN(CCC)C(C)C(=O)NCC1(c2ccccc2)CCCC1` (configuration not stated), the EC50 was > 35 µM (inactive).
For `O=C(c1ccc(OC2CCN(Cc3ccc(F)cc3)CC2)cc1)N1CCCC1`, the EC50 was > 35 µM (inactive).
For `CC(=O)NCCC(=O)Nc1cc(S(=O)(=O)N2CCOCC2)ccc1N1CCOCC1`, the EC50 was > 35 µM (inactive).
With `C=CCOc1ccc(/C=C2\SC(=Nc3cccnc3)NC2=O)cc1` the EC50 was > 35 µM (inactive).
With `CCCCn1c(/C=N/Nc2nc3ccccc3[nH]2)nc2ccccc21` the EC50 was 7.81 µM.
In the case of `CCOc1ccc(/C=C/C(=O)c2ccccc2)cc1OC`, the EC50 is reported as 19.7 µM.
With `COc1cnc(-c2ccccn2)nc1N(C)C` the EC50 was 5.92 µM.
`CN1CCC2(CC1)N=C(c1ccc(F)cc1)C(=S)N2C(=O)c1ccc(C(C)(C)C)cc1` was tested, and the EC50 was > 35 µM (inactive).
`COc1ccc(Cl)c(OC)c1C(=O)NC(=O)Nc1c(F)cc(F)cc1F` was tested, and the EC50 was > 35 µM (inactive).
For `COc1ccc(-c2cn3nc(SCC(=O)NCC4CCCO4)ccc3n2)cc1` (configuration not stated), the EC50 was > 35 µM (inactive).
`CCOc1ccc(NC(=O)C2CCN(S(=O)(=O)c3ccc4c(c3)N(C(C)=O)CCO4)CC2)cc1` was tested, and the EC50 was > 35 µM (inactive).
`Fc1cccc(/C=N/Nc2nccnc2Cl)c1` was tested, and the EC50 was > 35 µM (inactive).
For `CC(C)NC(=S)NN=C1c2ccccc2-c2ccccc21`, the EC50 was > 35 µM (inactive).
For `Cc1cccc(C(=O)OC(C)CN2CCCC2)c1` (configuration not stated), the EC50 was > 35 µM (inactive).
With `O=S(=O)(NCc1nnc2c(C(F)(F)F)cc(Cl)cn12)c1ccccc1` the EC50 was > 35 µM (inactive).
For `O=C(/C=C/c1cn(-c2ccccc2)nc1-c1ccccc1)Nc1ccc(C(=O)O)cc1`, the EC50 was > 35 µM (inactive).
`CNC(=O)C1CC(=O)N(c2ccc(OCC(=O)N3CCCC3)cc2)C1` (configuration not stated) was tested, and the EC50 was > 35 µM (inactive).
In the case of `O=c1oc2cc([N+](=O)[O-])ccc2nc1/C=C(\O)c1cccc(Br)c1`, the EC50 is reported as > 35 µM (inactive).
In the case of `Cc1cc(N/N=C/c2ccc(O)cc2O)nc(-c2ccccc2O)n1`, the EC50 is reported as 4.53 µM.
`CC(=O)Nc1c([N+](=O)[O-])cc(C)c(Cl)c1[N+](=O)[O-]` was tested, and the EC50 was > 35 µM (inactive).
In the case of `CCCCC(=O)NC(c1cccs1)c1cc(Cl)c2cccnc2c1O` (configuration not stated), the EC50 is reported as > 35 µM (inactive).
In the case of `CCOc1ccc2c(C)c(Cl)c(=O)oc2c1`, the EC50 is reported as > 35 µM (inactive).
`O=C(O)c1ccc2cccc(O)c2n1` was tested, and the EC50 was > 35 µM (inactive).
With `COc1ccc2oc(C(=O)OCC(=O)Nc3ccccc3OC)c(C)c2c1` the EC50 was > 35 µM (inactive).
With `Nc1ncnc2c1ncn2CCN1CCOCC1` the EC50 was > 35 µM (inactive).
For `COc1nccc(C(F)(F)F)c1C(=O)NC(=O)Nc1ccccc1`, the EC50 was > 35 µM (inactive).
Work on `CN(C)S(=O)(=O)c1cccc(NC(=S)N/N=C/c2cc(Br)ccc2O)c1` yielded an EC50 of 12.7 µM.
Molecule `Cc1cc(C)c2sc(NNC(=O)c3ccc(S(=O)(=O)N4CCc5ccccc5C4)cc3)nc2c1` has an EC50 of 10.5 µM.
`Cc1ccccc1CN1C(=O)CSc2ccc(C(=O)N3CCOCC3)cc21` was tested, and the EC50 was > 35 µM (inactive).
`Cc1ccn2c(Nc3ccccc3C)c(-c3ccccn3)nc2c1` was tested, and the EC50 was 6.66 µM.
With `Cc1ccc(C(=O)Nc2ccc3c(c2)nc(CCNC(=O)c2ccco2)n3C)cc1` the EC50 was > 35 µM (inactive).
`Cc1cccc2sc(NNC(=O)c3ccc(S(=O)(=O)N4CCc5ccccc5C4)cc3)nc12` gave an EC50 of 11.2 µM.
Molecule `CCN(CC)c1ccc(/C=N/NC(=O)c2nnn(-c3nonc3N)c2C(C)C)c(O)c1` has an EC50 of 3.55 µM.
`O=C(Cn1ncc2c3ccccc3n(Cc3ccccc3F)c2c1=O)NCCN1CCOCC1` was tested, and the EC50 was > 35 µM (inactive).
For `Cc1cc(C)[n+](Cc2ccccc2)cc1C(N)=O`, the EC50 was > 35 µM (inactive).
For `CCOC(=O)/C(N=Nc1ccc(F)cc1)=C(/O)c1ccc([N+](=O)[O-])cc1`, the EC50 was > 35 µM (inactive).
For `CC[n+]1c(S(=O)(=O)[O-])ccc2ccc(C)cc21`, the EC50 was > 35 µM (inactive).
For `COc1cccc(CNC(=O)CCCn2c(=S)[nH]c3cc4c(cc3c2=O)OCO4)c1`, the EC50 was > 35 µM (inactive).
`Cc1ccc(Nc2c(-c3ccccn3)nc3ccc(C)cn23)cc1` gave an EC50 of 6.14 µM.
Work on `CCc1cc(C(=O)N/N=C/c2ccc(O)cc2O)c2ccccc2n1` yielded an EC50 of 17.5 µM.
In the case of `O=C(Cn1c(SCC(=O)N2CCCc3ccccc32)nc2ccccc21)N1CCCC1`, the EC50 is reported as > 35 µM (inactive).
With `O=C(/C=C/c1ccccc1)NCCc1nc2ccccc2[nH]1` the EC50 was > 35 µM (inactive).
In the case of `COC(=O)C(NC(=O)c1c(C)nn(C)c1Cl)c1ccccc1` (configuration not stated), the EC50 is reported as > 35 µM (inactive).
`CCN(CC)CCNc1cc(C)nc2c1C(=O)C(=O)C=C2N1CCCCC1` was tested, and the EC50 was 3.63 µM.
In the case of `Cc1ccc2c(c1)C1NC(=S)NC(C)(O2)C1C(=O)Nc1ccc(Cl)cc1` (configuration not stated), the EC50 is reported as > 35 µM (inactive).
`CCCCCCCCCS(=O)(=O)N/N=C/c1cccc([N+](=O)[O-])c1` was tested, and the EC50 was > 35 µM (inactive).
For `COc1ccc2oc(=O)c(C(=O)NC3CCCCCC3)cc2c1`, the EC50 was > 35 µM (inactive).
For `COc1ccc(OC)c2sc(N3CCN(C(=O)c4ccc5ncsc5c4)CC3)nc12`, the EC50 was > 35 µM (inactive).
In the case of `COc1ccc(S(=O)(=O)N2CCC(c3cc(-c4cccc5ccccc45)n[nH]3)CC2)cc1`, the EC50 is reported as > 35 µM (inactive).
For `COc1ccc(N2CCN(S(=O)(=O)c3cc(-c4cc(C)no4)ccc3C(C)C)CC2)cc1`, the EC50 was > 35 µM (inactive).
With `CC(C)C(=O)N1CCN(c2ccc(NC(=O)COc3ccccc3[N+](=O)[O-])cc2)CC1` the EC50 was > 35 µM (inactive).
In the case of `CCOC(=O)/C(=N\Nc1cccc(C(F)(F)F)c1)N1CCOCC1`, the EC50 is reported as > 35 µM (inactive).
In the case of `CCn1c(N2CCC(Cc3ccccc3)CC2)nc2c1c(=O)[nH]c(=O)n2C`, the EC50 is reported as > 35 µM (inactive).
`CCOC(=O)c1c(C)[nH]c(C)c1S(=O)(=O)N1c2ccccc2CC1C` (configuration not stated) was tested, and the EC50 was > 35 µM (inactive).
For `Cc1ccc(C)c(OCC(=O)N2CCN(Cc3ccc4c(c3)OCO4)CC2)c1`, the EC50 was > 35 µM (inactive).
`COc1cnc(-c2ccccn2)nc1N(C)c1ccccc1` gave an EC50 of 9.27 µM.
In the case of `O=C(COC(=O)c1ccccc1Nc1ccccc1)NCc1ccccc1Cl`, the EC50 is reported as > 35 µM (inactive).
In the case of `Cc1cc(NC(=O)CSc2nc3c(c(=O)n2-c2ccc(Cl)cc2)SCC3)no1`, the EC50 is reported as > 35 µM (inactive).
`CCOc1cccc(-c2c(C(=O)N/N=C/c3ccc(Br)cc3)nnn2-c2nonc2N)c1` was tested, and the EC50 was > 35 µM (inactive).
For `COc1ccc(/C=N/Nc2ncnc3sc4c(c23)CCCC4)cc1OC`, the EC50 was > 35 µM (inactive).
In the case of `COc1ccc(N2CCN(C(=O)C3COc4ccccc4O3)CC2)cc1` (configuration not stated), the EC50 is reported as > 35 µM (inactive).
With `CCn1nc(C(=O)OCC(=O)NC(C)C)c2ccccc2c1=O` the EC50 was > 35 µM (inactive).
